In patent publication US11896032B2, “Agent for improving feed conversion rate, agent for improving survival rate, agent for improving the number of eggs laid by egg-laying hen, and method of giving same to animals, and feed” (Tsubakisangyo Co., Ltd., priority 2016, dated 2024):
Where “and” joins values, the source holds several entries; their conditions need not be identical. Equal values may be shown once.

What was measured:
chickens for meat = details: 1% glycine in feed; cited from earlier work
[1] = test system: chickens for meat (broilers); assay: Third test: feed with powdery acetylcysteine added given to chickens for meat (broilers); format: in vivo, chicken (Chunky broiler)
Description: A third test was performed by giving chickens for meat (broilers) a feed having powdery acetylcysteine added thereto.
300 (150 males and 150 females) broiler-dedicated breed day-old chicks (broilers available from Nippon Chunky Co., Ltd.) are fed. As the chicks, about 350 birds (175 males and 175 females) were introduced, and individuals not having any abnormal health condition and having a close weight were selected and used in the test.
The nutritional value of this basic feed is adjusted so as to be lower than the index.
The concentration of acetylcysteine added to the basic feed was determined based on the aimed results for Chunky broiler (2014).
Three groups were assigned to the control zone and the test zone, respectively, and the chicks were raised until 49-day old.
Each flock of tested chicks was raised in an electrically heated windowless chicken house of a forced ventilation (air exhaust) type.
For vaccination, chicks vaccinated with Marek's vaccine and live fowl pox vaccine when born were introduced, and were additionally vaccinated with NB live vaccine at 4-day old and 15-day old and with live fowl pox vaccine at 21-day old.
The feed and drinking water were continuously given.

egg-laying hens [2] = assay: Second test: feed with powdery acetylcysteine added given to egg-laying hens; format: in vivo, chicken (Julia Light); details: for egg production rate: 28 days, 42- to 46-week old hens
Description: The second test was performed by giving a feed, to which powdery acetylcysteine was added, to egg-laying hens.
120 individuals having an egg production rate of 82% or more 4 weeks before the start of the preparative raising were selected from Julia Light birds (281-day old when partitioned) which were being raised in the scientific feed research center of Japan Scientific Feeds Association to be fed.
Three zones were set: a control zone where a basic feed not having acetylcysteine added thereto was given, a first test zone (standard zone) where a feed comprising a basic feed to which 0.0014% acetylcysteine was added was given, and a second test zone (5-fold zone) where a feed comprising a basic feed to which 0.0072% acetylcysteine was added was given.
Four groups were assigned to each zone, and the basic feed was given for 14 days to accustom the tested hens to the test environment. After that, the feed corresponding to each zone was given for 4 weeks.
Also in the second test, a standard daily intake of acetylcysteine per bird is planned to be 1 mg per weight (Kg) of a tested hen. In the main test, from the weight at the start of preparative raising and the feed intake one week after the start of preparative raising, assuming that the weight of a tested hen was 1580 g and a daily feed intake per bird was 140 g, the amount of acetylcysteine to be added to the basic feed was set from the following expression: standard zone: amount (%) of acetylcysteine to be added to the basic feed=weight (1580 g)×acetylcysteine intake (1 mg/weight (Kg))/feed intake (114 g/day/bird)×100 5-fold zone: amount (%) of acetylcysteine to be added to the basic feed=weight (1580 g)×acetylcysteine intake (5 mg/weight (Kg))/feed intake (114 g/day/bird)×100 <Management of Raising>
The tested hens were individually managed in a terraced individual cage for egg-laying hens disposed in an open chicken house. A set of 10 continuous cages was used for each group, and a single empty cage was disposed between the zones. The feed and drinking water were continuously given. The light beams were controlled such that the bright period was 14 hours and the dark period was 10 hours.
A variation in weight, the average egg weight, the daily egg production amount, the feed intake, and the feed efficiency were subjected to analysis of variance by a method of one-way analysis of variance using the given feed as a factor, and the superiority in each interval was examined. The egg production rate was subjected to arcsine transformation, and the superiority of the difference between intervals was similarly examined. The culling hens were excluded from the average back to the start of the test, and the results of egg production and the like were summarized. The egg production rate during the test period was subjected to rejection test, and the individuals whose egg production rate was determined as abnormal were also excluded from the average back to the start of the test.
The scientific feed research center of Japan Scientific Feeds Association (821 Yoshikura, Naritashi, Chiba)
The test was performed for 42 days from September 21 to November 2, Heisei 28. The 14 days from September 21 to October 5, Heisei 28 was the preparative test period, and the 28 days from October 6 to November 2, Heisei 28 was the main test period.

egg-laying hens [3] = assay: First test: aqueous solution of acetylcysteine given to egg-laying hens as drinking water; format: in vivo, chicken (Julia Light in test zone, Julia in control zone)
Description: The first test was performed by giving an aqueous solution of acetylcysteine to egg-laying hens as drinking water.
Adult egg-laying hens were selected as the target animal for the test because data is readily collected. The point of time when the test was started was at off-peak times in egg laying.
Two breeds Julia and Julia Light were used.
For this reason, in the main test, Julia having a low feed conversion rate (high profitability) was raised in the control zone and Julia Light having a high feed conversion rate (low profitability) was raised in the test zone.
The number of hens in the test zone was 33412 Julia Light hens and that in the control zone was also 33412 Julia hens.
The test zone and the control zone were placed in Akagiyama Farm run by Takai Poultry Farm Y.K., where chickens are actually raised, to perform the test in an actual situation.
A windowless house was used because differences between individuals and differences in heath conditions are small.
The house was provided with a cage having a width of 380 mm, a length of 500 mm, and a height of 380 mm.
To avoid application of heat stress to the target chickens for the test, the test was performed for 166 days from October 21, Heisei 27 to April 3, Heisei 28. At a temperature inside the house of more than 27° C., the feed demand (feed intake) of the chickens will reduce due to heat stress.
A Kumiai Blend Feed “Akagikougen 17 Up for adult chicken” shown in FIG. 1 was given from October 21, Heisei 27 to February 13, Heisei 28, and a Kumiai Blend Feed “Akagikougen 16 Up for adult chicken” shown in FIG. 2 was given from February 23 to April 3, Heisei 28.
As the agent for improving a feed conversion rate, the agent for improving a survival rate, or the agent for improving the number of eggs laid by an egg-laying hen, an aqueous solution of acetylcysteine was given to Julia Light in the test zone as drinking water through the nipples disposed at both ends of the ceiling of the cage.
The concentration of acetylcysteine in drinking water was prepared such that 1 mg/day/Kg acetylcysteine was given to the egg-laying hens. Specifically, 3.3 L per day of a stock solution having an acetylcysteine concentration of 10% was used for 33412 Julia Light hens having a weight of about 2 Kg.
The frequency to give the agent for improving a feed conversion rate, the agent for improving a survival rate, or the agent for improving the number of eggs laid by an egg-laying hen was one time for 5 days.
Water not containing agent for improving a feed conversion rate, the agent for improving a survival rate, or the agent for improving the number of eggs laid by an egg-laying hen was given to Julia in the control zone through the nipple.
The lower columns in FIG. 3 show the difference in the number of deaths, the difference in the number of eggs laid, the average feed demand, the average egg production rate, and the average egg weight between the target chickens for the test and the control during the test period.
A smaller number of deaths and cullings of the target chickens for the test are preferred. A larger number of eggs laid are preferred. A smaller feed demand (feed intake) is preferred although it should be balanced with the egg production rate and the egg weight. A larger egg production rate is preferred. A larger egg weight and a larger average egg weight are preferred. The feed conversion rate of the target egg-laying hen for the test is calculated as a ratio of the total weight of eggs laid to the feed demand as described above. The feed demand is calculated as a product of the feed intake, the number of birds, and the survival rate. The total weight of eggs laid is calculated as a product of the number of birds, the egg production rate, and the average egg weight.
The feed conversion rate of the target egg-laying hen for the test is represented by a ratio of the amount of feed given to the total weight of eggs laid as described above. […]

[4] = 1 mg/day/Kg in drinking water, 166 days

NCC(=O)O [glycine]
weights of chickens of 7-day old vs without giving glycine (chickens for meat): smaller

CC(=O)N[C@@H](CS)C(=O)O [acetylcysteine, N-acetyl-L-cysteine]
feed conversion rate in the test zone relative to that in the control zone ([1]; 1 mg/Kg daily in feed, until 49-day old): 100.55% | feed efficiency in the test zone relative to that in the control zone ([1]; Weeks 4 to 7 of the second period): 101.54% | number of deaths and cullings ([1]; test zone, control zone 3 birds, Week 6 (sudden death syndrome)): 1 bird | growth rate ([1]; test zone, control zone 98%): 99.3% | feed efficiency in the test zone relative to that in the control zone ([1]; three weeks of the first period): 99.32% | feed efficiency in the test zone relative to that in the control zone ([1]; whole period, until 49-day old): 100.93% | weight at the end of the test relative to control zone (egg-laying hens [2]; 5-fold zone, 0.0072% acetylcysteine in feed, 4 weeks): approximately equal | egg production rate (egg-laying hens [2]; 5-fold zone, 0.0072% in feed): 98.6% | feed conversion rate, higher than that in the control zone (egg-laying hens [2]; feed contained 0.2% DL-methionine, zone not specified): 4.43% | weight at the end of the test, larger than that in the control zone (egg-laying hens [2]; standard zone, 0.0014% acetylcysteine in feed, 4 weeks): 0.5% | egg production rate (egg-laying hens [2]; standard zone, 0.0014% in feed): 99.2% | decrease of average egg weight in test zone compared to control zone (egg-laying hens [3]; [4]): 2.16% | increase of average egg production rate in test zone compared to control zone (egg-laying hens [3]; [4]): 1.13% | increase of number of eggs laid in test zone compared to control zone (egg-laying hens [3]; [4]): 1.67% | proportion of the feed conversion rate in the test zone to that in the control zone (egg-laying hens [3]; [4]): 96.50% and 96.48% | reduction (improvement) of feed conversion rate in test zone compared to control zone (egg-laying hens [3]; [4]): 3.52% | reduction of number of deaths and cullings in test zone compared to control zone (egg-laying hens [3]; [4]): 20% | feed conversion rate in the test zone (egg-laying hens [3]; 1 mg/day/Kg in drinking water, given one time for 5 days, 166 days, control zone 1.99): 1.92 | reduction of feed demand (egg-laying hens [3]; as shown in FIG. 3, test zone vs control zone): 4.67% | improvement of feed conversion rate in test zone vs control zone in consideration of the preparative test (egg-laying hens [3]; corrected for 1.59% increase in 20-day preparative test without agent): 5.11% | surface roughness of egg shells, visual observation, vs eggs of control zone (egg-laying hens [3]; eggs collected in the test zone): finer and smoother surfaces | improvement in feed conversion rate in the test of the old hens in the chicken farm (egg-laying hens [3]; old hens, chicken farm): more than 5% | calcium in solid products of feces washed with water (egg-laying hens [3]; test zone, calcium was found in the control zone): no calcium was found
